Assay type in all cases: cell-based
The subject of assay [1] is cellular microtubules (MTs) in COS 1 cells. Nature of the assay: VP22 deletion mutants transfected into COS 1 cells, immunofluorescence with anti VP22 antibody AGV30: MT bundling and movement between cells. The following applies: transfected COS 1 cells. From the text:
To broadly identify the region of VP22 involved in MT interaction, we utilised a range of C terminal deletion mutants of the protein. The plasmids encoding WT, del-267, del-192 and del-119 (FIG. 3a) forms of VP22 were transfected into COS 1 cells and analysed by immunofluorescence using the anti VP22 antibody AGV30. The del-267 and del-119 constructs comprise respectively aminoacids 1–267 inclusive, and aminoacids 1–119 inclusive of the wild type sequence of VP22 of HSV1 as disclosed in above-cited WO 97/05265 and references cited therein. The del-192 construct consists of aminoacids 1–191 inclusive plus a residue 192 mutated to leucine.
In these examples the longer sequences have increasing efficiency.

Assay [2] has the same test system.
For assay [3] the test system is unchanged. The assay can be described thus: Double immunofluorescence (anti-VP22, anti alpha tubulin) of COS 1 cells expressing VP22: co-localisation with and bundling of microtubules. From the text:
To investigate the possibility that the pattern of localisation in cells expressing VP22 represents co-localisation with a component of the cytoskeleton, COS 1 cells were transfected with the VP22 expression plasmid pGE109. Forty hours after transfection, the cells were fixed with 100% methanol and double immunofluorescence carried out with antibodies against VP22 (polyclonal AGV30) and alpha tubulin (monoclonal anti alpha tubulin, Sigma).
COS 1 cells treated in the same manner were exposed to the MT stabilising drug taxol (10 microM) for 30 minutes prior to fixation. […] The MT binding property of VP22 can also be used to deliver coupling products between VP22 and other substances, such as taxol or a related compound to MTs.

The test system of assay [4] is acetylated form of tubulin. Nature of the assay: Acetylation of MTs: colocalisation immunofluorescence and Western blot with monoclonal antibody specific for acetylated tubulin. From the text: Acetylation of MTs was previously reported as a marker for MT stability (Piperno et al, J Cell Biol 104 (1987) 289–302). This has been shown by use of monoclonal antibody specific for the acetylated form of tubulin (obtainable from Sigma Chemical), in colocalisation assays by immunofluorescence, and by Western blot assays. This effect can be used as a biochemical marker for analysing and quantitating the level of MT stabilisation induced by VP22 or a variant or derviative thereof.
On the technique in general: In western blotting, separated proteins are transferred to a membrane and probed.

In the case of “1–159: VP22 fragment consisting of residues 1–159”, the “MT bundling / cytoplasmic filament formation by VP22 forms” value in assay [1] was “did not appear to retain the MT-bundling activity”.
As to “1–172: variant VP22 protein consisting of residues 1–172 of the native VP22 of HSV1”, in assay [1], the “MT bundling / cytoplasmic filament formation by VP22 forms” value is recorded as “retain in some degree the ability to bundle microtubules”.
For `COC(=O)Nc1nc2ccc(C(=O)c3cccs3)cc2[nH]1` [Nocodazole, nocodazole, reference compound], the “Effect of nocodazole on the MT network of untransfected cells” value in assay [2] was “depolymerisation of the MT network”.
Regarding `CC(=O)O[C@H]1C(=O)[C@@]2(C)[C@H]([C@H](OC(=O)c3ccccc3)[C@]3(O)C[C@H](OC(=O)[C@H](O)[C@@H](NC(=O)c4ccccc4)c4ccccc4)C(C)=C1C3(C)C)[C@]1(OC(C)=O)CO[C@@H]1C[C@@H]2O` [taxol, reference compound], the “Effect on MTs in untransfected cells” value in assay [3] (untransfected COS 1 cells, taxol 10 microM, 30 minutes prior to fixation) is recorded as “creating large bundles of MTs”.
For “VP22: product of the herpes simplex virus type 1 (HSV 1) UL49 gene, the structural tegument protein VP22, 32 kD”, the “Co-localisation with and bundling of the cellular MT network” value in assay [3] (COS 1 cells transfected with pGE109, fixed 40 h after transfection) was “colocalises and reorganises the cellular MT network into bundles”. Moreover, the “MT bundles in VP22 expressing cells exposed to taxol” value in assay [3] (VP22 expressing COS 1 cells plus taxol 10 microM, 30 minutes) was “these bundles were even more striking and again co-localised with VP22”. Further, the “Stabilisation of MTs against nocodazole depolymerisation” value in assay [2] (VP22 expressing COS 1 cells, nocodazole 500 ng/ml, 30 minutes) is listed as “does not depolymerise the MTs”. Further, the “Stabilisation of MTs against depolymerisation by cold” value in assay [2] (incubation of cells at 4 deg C) is “stabilised MTs against depolymerisation by 4 deg C. incubation”. In assay [4], the “Acetylation of MTs (marker for MT stability)” value is “associated with acetylation of the MTs”. Moreover, in assay [1], the “MT bundling / cytoplasmic filament formation by VP22 forms” value is recorded as “VP22 in cytoplasmic filaments” and the “Movement of the protein between cells (transport)” value is “surrounded by cells with VP22 in their nuclei”.
